How the values were obtained:
Mus musculus [1] = assay: Analgesic activity in ICR mouse assessed as pain threshold at 0.1 umol/kg administered through oral gavage after 60 mins by tail flick method; format: functional
Mus musculus [2] = assay: Analgesic activity in ICR mouse assessed as pain threshold at 0.1 umol/kg administered through oral gavage after 120 mins by tail flick method; format: functional
[3] = Antioxidant activity in rat PC12 cells assessed as H2O2 radical scavenging activity measured as cell survival preincubated with compound for 1 hr measured after 14 hrs by MTT assay; format: functional, cell-based; details: pc-12
[4] = Antioxidant activity in sodium nitroprusside-stimulated rat PC12 cells assessed as NO radical scavenging activity measured as cell survival preincubated with compound for 1 hr followed by addition of sodium nitroprusside for 2 measured after 14 hrs by MTT assay; format: functional, cell-based; details: pc-12
Mus musculus [5] = assay: Analgesic activity in ICR mouse assessed as pain threshold at 0.1 umol/kg administered through oral gavage after 150 mins by tail flick method; format: functional
Mus musculus [6] = assay: Analgesic activity in ICR mouse assessed as pain threshold at 0.1 umol/kg administered through oral gavage after 180 mins by tail flick method; format: functional
Mus musculus [7] = assay: Antiinflammatory activity in ICR mouse assessed as inhibition of xylene-induced ear edema at 0.1 umol/kg, po administered 30 mins prior to xylene challenge measured after 2hrs; format: functional
[8] = Antioxidant activity in H2O2/Fe(II)-stimulated rat PC12 cells assessed as OH radical scavenging activity measured by cell survival preincubated with compound for 1 hr measured after 14 hrs by MTT assay; format: functional, cell-based; details: pc-12
Mus musculus [9] = assay: Analgesic activity in ICR mouse assessed as pain threshold at 0.1 umol/kg administered through oral gavage after 90 mins by tail flick method; format: functional
Mus musculus [10] = assay: Analgesic activity in ICR mouse assessed as pain threshold at 0.1 umol/kg administered through oral gavage after 30 mins by tail flick method; format: functional
Mus musculus [11] = assay: Analgesic activity in ICR mouse assessed as pain threshold at 1 umol/kg administered through oral gavage after 90 mins by tail flick method; format: functional
Mus musculus [12] = assay: Analgesic activity in ICR mouse assessed as pain threshold at 1 umol/kg administered through oral gavage after 30 mins by tail flick method; format: functional
Mus musculus [13] = assay: Analgesic activity in ICR mouse assessed as pain threshold at 1 umol/kg administered through oral gavage after 150 mins by tail flick method; format: functional
Mus musculus [14] = assay: Analgesic activity in ICR mouse assessed as pain threshold at 1 umol/kg administered through oral gavage after 180 mins by tail flick method; format: functional
Mus musculus [15] = assay: Analgesic activity in ICR mouse assessed as pain threshold at 1 umol/kg administered through oral gavage after 60 mins by tail flick method; format: functional
Mus musculus [16] = assay: Analgesic activity in ICR mouse assessed as pain threshold at 1 umol/kg administered through oral gavage after 120 mins by tail flick method; format: functional

Row | SMILES | Activity (Mus musculus [1]) [%] | Activity (Mus musculus [2]) [%] | EC50 [3] [µM] | EC50 [4] [µM] | Activity (Mus musculus [5]) [%] | Activity (Mus musculus [6]) [%] | inhibition (INH) (Mus musculus [7]) [%] | EC50 [8] [µM] | Activity (Mus musculus [9]) [%] | Activity (Mus musculus [10]) [%] | Activity (Mus musculus [11]) [%] | Activity (Mus musculus [12]) [%] | Activity (Mus musculus [13]) [%] | Activity (Mus musculus [14]) [%] | Activity (Mus musculus [15]) [%] | Activity (Mus musculus [16]) [%] | inhibition in vivo at 0.1 µmol/kg (Mus musculus [7]; Mus musculus, ICR, Ear, po) [%]
1 | CC1(C)N([O])C(c2ccc(OCC(=O)N[C@@H](CCCNC(=N)N)C(=O)N[C@@H](Cc3ccc(O)cc3)C(=O)O)cc2)=[N+]([O-])C1(C)C | 14.31 | 13.18 | 31.3 | 8.1 | 11.91 | 10.05 | 28.29 | 22.7 | 26.97 | 10.1 | – | – | – | – | – | – | –
2 | Cc1cc(C[C@H](NC(=O)COc2ccc(C3=[N+]([O-])C(C)(C)C(C)(C)N3[O])cc2)C(=O)N[C@@H](CCCNC(=N)N)C(=O)O)ccc1O | 18.97 | 31.21 | 31.3 | 8.1 | 13.25 | 12.38 | 29.47 | 22.7 | 22.1 | 10.24 | – | – | – | – | – | – | –
3 | CCc1cc(O)ccc1C[C@H](NC(=O)COc1ccc(C2=[N+]([O-])C(C)(C)C(C)(C)N2[O])cc1)C(=O)N[C@@H](CCCNC(=N)N)C(=O)O | 17.31 | 22.78 | 31.3 | 8.1 | 22.34 | 15.04 | 30.26 | 22.7 | 21.89 | 10.78 | – | – | – | – | – | – | –
4 | COc1cc(O)ccc1C[C@H](NC(=O)COc1ccc(C2=[N+]([O-])C(C)(C)C(C)(C)N2[O])cc1)C(=O)N[C@@H](CCCNC(=N)N)C(=O)O | 16.33 | 27.14 | 31.3 | 8.1 | 24.12 | 11.24 | 29.27 | 22.7 | 22.47 | 11.37 | – | – | – | – | – | – | –
5 | NC(N)=NCCC[C@H](NC(=O)[C@@H](N)Cc1ccc(O)cc1)C(=O)O [KYOTORPHIN] | – | – | – | – | – | – | – | – | – | – | 25.35 | 16.08 | 12.11 | 10.55 | 22.78 | 12.32 | 25.9
6 | CC1(C)N([O])C(c2ccc(OCC(=O)N[C@@H](Cc3ccc(O)cc3)C(=O)N[C@@H](CCCCN)C(=O)O)cc2)=[N+]([O-])C1(C)C | 19.35 | 38.33 | 31.3 | 8.1 | 33.73 | 13.58 | 36.94 | 22.7 | 29.31 | 12.56 | – | – | – | – | – | – | –
7 | CC1(C)N([O])C(c2ccc(OCC(=O)N[C@@H](Cc3ccc(O)c(CO)c3)C(=O)N[C@@H](CCCNC(=N)N)C(=O)O)cc2)=[N+]([O-])C1(C)C | 19.13 | 25.78 | 31.3 | 8.1 | 33.56 | 20.14 | 31.23 | 22.7 | 22.37 | 12.12 | – | – | – | – | – | – | –

Source: ChEMBL document CHEMBL3784981, “Anti-inflammatory, analgesic and antioxidant activities of novel kyotorphin-nitroxide hybrid molecules” (Bioorg Med Chem Lett, 2016)
